Patent publication US10993984B2, “Terlipressin compositions and their methods of use” (Chiasma, Inc., priority 2016, dated 2021)
Bridge positions count the residues as written; N and C are the ends. Peptide text beside a SMILES is read from it.

Experiment: in vivo
Settings: dog, iv, 0.2 mg
Description: The IV dosage was 0.2 mg per dog which is similar to the therapeutic dosage in humans. The oral dosage was 20 mg, and was selected by assuming a BA of about 1%. The concentration of both terlipressin and the active metabolite lysine vasopressin are shown as a function of time. The pharmacokinetic parameters of the active metabolite lysine-vasopressin were determined as well as terlipressin. Each Glypressin ampule contains 1 mg terlipressin acetate, which is equivalent to 0.85 mg terlipressin base. All doses in this study are expressed on the basis of terlipressin base.
All animals were fasted for at least 12 hours prior to dosing and through the first 4 hours of blood sample collection.
In the oral terlipressin capsule treatments, in order to acidify the stomach of the dog, approximately 30 minutes prior to dosing each animal received a single subcutaneous (SC) injection of pentagastrin (0.12 mg/mL) at a dose level of 0.006 mg/kg and a dose volume of 0.05 mL/kg. The same dogs can be used for more than one treatment, with a wash-out period of at least 1 week.
Blood was withdrawn at pre-determined times as follows:

AUC(0-inf): 9.14 ng·h/mL
AUC(0-t): 9.13 ng·h/mL
Cmax: 59.1 ng/mL
half-life: 13.9 ± 1.32 min
Compound: NCCCC[C@H](NC(=O)[C@@H]1CCCN1C(=O)[C@@H]1CSSC[C@H](NC(=O)CNC(=O)CNC(=O)CN)C(=O)N[C@@H](Cc2ccc(O)cc2)C(=O)N[C@@H](Cc2ccccc2)C(=O)N[C@@H](CCC(N)=O)C(=O)N[C@@H](CC(N)=O)C(=O)N1)C(=O)NCC(N)=O [IV terlipressin, Terlipressin] (H-GGGCYFQNCPKG-NH2; disulfide 4-9)
